Earlier results in patent US20080268034A1, “Solid Oral Dosage Forms of Ziprasidone Containing Colloidal Silicone Dioxide” (priority 2005, published 2008).

## O=C1Cc2cc(CCN3CCN(c4nsc5ccccc45)CC3)c(Cl)cc2N1 [Ziprasidone free base, 5-[2-[4-(1,2-benzisothiazol-3-yl)-1-piperazinyl]ethyl]-6-chloro-1,3-dihydro-2H-indol-2-one]
  solubility: very poor solubility
